The values that follow are results of earlier work, collected in US6470305B1, “Chemical analysis by morphological similarity” (priority 1998, dated 2002).

SMILES strings stand for the structures.

The series concerns the target CDK2 (Homo sapiens, UniProt P24941). The conditions noted are these: weak inhibitor; value from Kim et al., Prog Cell Cycle Res (1996); read-out: IC50 versus CDK2.

A word on the IC50: it is the concentration needed to halve the response being measured. Take `CC(C)=CCNc1ncnc2nc[nH]c12` [IPA, isopentenyl adenine]: the half-inhibitory concentration (IC50) was 50 µM.
